Results on 2 molecules are retold here after US8362031B2, “Lonidamine analogues and treatment of polycystic kidney disease” (University of Kansas, priority 2004, dated 2013).

“Also recorded” adds a separate entry of the source.

Data set [1] has as its system E15.5 kidneys from Pkd1+/+, +/−, and −/− mice. Put plainly: Metanephric organ culture, cAMP-driven cyst formation. In kind it is cell-based, mouse. How it is done: To determine whether gamendazole alters the cyst-forming process in response to cAMP, kidneys from Pkd1+/+, +/−, and −/− mice were placed in metanephric culture at E15.5 and treated with 100 uM 8-Br-cAMP with or without gamendazole (100 nM-10 uM) for 4 days.
The length of time that Gamendazole was able to block fluid secretion in embryonic kidneys using a washout technique was studied. Briefly, E15.5 kidneys were treated with cAMP alone or with cAMP plus 5 microM Gamendazole. 24 hrs later, culture medium was removed from the GMZ+cAMP-treated kidneys and was replaced with fresh medium containing cAMP only. […] This was evident by the reduced number and size of the tubule dilations on Day 4.

Data set [2] concerns ADPKD cells. Put plainly: Phalloidin staining of the actin cytoskeleton. In kind it is cell-based, human. The following applies: increasing concentrations. On the procedure:
To determine if gamendazole treatment alters actin cytoskeleton dynamics, ADPKD cells were stained with phalloidin and examined by fluorescence microscopy. […] Briefly, ADPKD cells or M-1 cortical collecting duct cells were plated in a 4-well chamber slide in 5% FBS-containing medium. After 24 hours, the cells were treated with increasing concentrations of GMZ. Cells were fixed using 4% paraformaldehyde and permeabilized with 0.2% Triton-X 100. Cells were then incubated for 20 min with TRITC-conjugated phalloidin, washed with PBS and mounted with DAPI-containing mounting medium. Images were captured at 10× (FIG. 13A) or 60× (FIG. 13B), using the same exposure settings for treated and untreated cells. […] Blue (internal staining) indicates DAPI-stained nuclei.

Data set [3] has as its system ADPKD cells. Put plainly: Wound-healing scratch assay (cell migration). It counts as cell-based, human. On the procedure:
Gamendazole (GMZ) was tested to determine if it inhibits cell migration. Briefly, ADPKD cells were plated on a 12-well cell culture plate in 5% FBS-containing medium and allowed to form a confluent monolayer. The monolayer was wounded using a P-200 pipette tip and the medium changed to include increasing concentrations of gamendazole. Images of three different fields per well were captured at 10× magnification immediately after wounding and at 4, 8 and 24 hours post-wounding. GMZ was tested at 0, 10, 50, and 100 uM. Area of the wound was measured at each time point using NIH Image J program. Percentage of wound closure was calculated by subtracting the area of the wound at any given time point from the 0 h wound area expressed as a percentage of the 0 h wound area. Statistical analysis was done to compare the GMZ-treated cells to untreated cells at each time point using One-way ANOVA and the Tukey HSD test for pair-wise comparisons.

Another data set concerns rats. Put plainly: Animal tolerance studies of GMZ. In kind it is in vivo, rat. From the text: The parent compound of GMZ, Lonidamine, inhibits the chloride channel CFTR, interferes with cellular energy output and has been used as an anticancer drug. […] GMZ binds directly to Hsp90-beta and eukaryotic elongation factor eEF1A as shown by affinity chromatography and direct binding studies.

The next data set has as its target T1, HSP90 (Mus musculus, UniProt P11499).
T1 construct: Wash four 150 mm plates of TM4 cells (sertoli cells) or ID-8 cells (ovarian cancer) once with PBS; endogenous in cells; host or cells: TM4 Sertoli cells (mouse) and ID8 ovarian cancer cells, cell lysate
Put plainly: Affinity chromatography of cell lysate with biotinylated RC-MC-110, drug specific elution. The following applies: TM4 sertoli cell (mouse) and ID8 cell lysates, avidin-sepharose column. In kind it is binding. How it is done:
To analyze the binding of the compounds of the present invention, the following procedure is used.
2. Wash four 150 mm plates of TM4 cells (sertoli cells) or ID-8 cells (ovarian cancer) once with PBS (20 mM concentration pH 7.5). Add enough volume to trypsinize cells. Aspirate and spin cells for 10 minutes at 4° C. at 250×g. Add enough Lysis buffer to the cells.
5. Remove the cell lysate and apply the sample into a 2 ml avidin-sepharose (tetramer form) column (pre-equilibrated with 50 mM Tris-HCl/0.001% NP-40, pH 7.4) to remove native biotinylated compounds.
6. Take 2.7 ml of pre-cleared cell lysate and incubate the sample with RC-MC-110.
Tube 1: 2.7 ml of pre-cleared lysate plus 150 μl of 1.2 mg/ml biotinylated RC-MC-110+150 μl of DMSO (maintaining the same amount of DMSO in both tubes).
Tube 2: 2.7 ml of pre-cleared lysate plus 150 μl of 1.2 mg/ml of biotinylated RC-MC-110 (RC-MC-150, see structure below), and add 150 μl of 12 mg/ml RC-MC-110 stock. Incubate the sample overnight at […] on a rocking platform (or gentle stirring) with gentle agitation.
7. Load samples on an avidin-sepharose column pre-equilibrated with buffer (50 mM Tris-HCl pH 7.4, 0.1% NP-40=TD buffer). Wash column until background is reached.
8. Wash column with 2.5 ml of 0.6 mg/ml of RC-MC-110 in TD buffer (stock 12 mg/ml) until peak elutes (if any) and stable background. Pool fractions.

Data set [4] relates to ovarian (ID8), taxol-resistant ovarian (ID8), prostate (LNCaP and PC-3), kidney (293). Put plainly: Growth of cancer cell lines in vitro. It counts as cell-based. The following applies: all cell lines named. How it is done:
When RC-MC-110 is added to a variety of cancer cells: ovarian (ID8), taxol-resistant ovarian (ID8), prostate (LNCaP and PC-3), kidney (293).

The subject of another data set is Male Long Evans rats. Put plainly: In vivo antispermatogenic testing in Long Evans rats.
Setting [5] is: 100 nM-10 uM for 4 days with 100 uM 8-Br-cAMP.

T1 sequence (P11499 whole entry): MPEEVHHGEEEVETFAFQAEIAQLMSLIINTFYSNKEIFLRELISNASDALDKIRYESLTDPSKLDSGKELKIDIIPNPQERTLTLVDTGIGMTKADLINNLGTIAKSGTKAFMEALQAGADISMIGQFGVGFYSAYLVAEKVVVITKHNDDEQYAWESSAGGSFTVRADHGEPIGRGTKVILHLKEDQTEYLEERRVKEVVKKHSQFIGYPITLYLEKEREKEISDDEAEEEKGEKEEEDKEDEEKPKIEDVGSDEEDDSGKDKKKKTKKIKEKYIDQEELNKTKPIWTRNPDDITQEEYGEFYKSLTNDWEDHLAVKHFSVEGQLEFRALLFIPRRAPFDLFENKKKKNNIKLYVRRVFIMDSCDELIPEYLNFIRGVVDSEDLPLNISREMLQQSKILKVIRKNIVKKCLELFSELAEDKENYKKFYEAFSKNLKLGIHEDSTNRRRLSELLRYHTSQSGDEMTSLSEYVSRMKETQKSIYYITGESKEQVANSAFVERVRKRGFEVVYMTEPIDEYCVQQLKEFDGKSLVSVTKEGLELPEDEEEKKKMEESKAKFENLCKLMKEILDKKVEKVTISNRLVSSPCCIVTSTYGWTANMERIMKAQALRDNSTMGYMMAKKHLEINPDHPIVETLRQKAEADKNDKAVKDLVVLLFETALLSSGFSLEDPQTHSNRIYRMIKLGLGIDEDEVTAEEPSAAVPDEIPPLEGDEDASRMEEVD

As for `O=C(O)CCc1nn(Cc2ccc(Cl)cc2Cl)c2cc(C(F)(F)F)ccc12` [GMZ, 3-[1-(2,4-dichlorobenzyl)-6-trifluoromethyl-1H-indazol-3-yl]-propionic acid], in data set [1] (setting [5]), the “Toxicity to the kidneys in metanephric culture” value is “did not appear to be toxic to the kidneys” and the cystic dilation entry is given as “significantly inhibited cystic dilation”. Further, the “cyst formation in Pkd1+/− kidneys” value in data set [1] (1-2 uM) was “essentially preventing cyst formation”. For the same molecule, the “cyst reduction in Pkd1−/− kidneys” value in data set [1] (5-10 uM, data not shown) was “dramatic cyst reduction”. Besides, in data set [1] (5 microM), the “cAMP-mediated cyst formation in heterozygous and null metanephric kidneys” value was “significantly inhibited cAMP-mediated cyst formation”; the “cystic index, three Pkd1 genotypes” value is “dramatic decrease in cystic index”. Also, the “Persistence of inhibition after washout” value in data set [1] (5 microM for 24 hrs, then cAMP only, read on Day 4) is “the inhibitory effects appeared to persist in culture”. In addition, the “Size of kidneys in organ culture” value in data set [1] (compared to untreated counterparts) is on record as “somewhat reduced in size”. Further, the “Cell morphology, actin cytoskeleton” value in the data set with ADPKD cells [2] was “smaller, without leading edges and with less filamentous actin”. Besides, the “cell migration (percentage of wound closure)” value in the data set on ADPKD cells [3] (10, 50 and 100 uM, 4, 8 and 24 hours post-wounding) was “significant inhibition of cell migration at all concentrations of GMZ tested and at all time points”. Besides, in the data set with ADPKD cells [3] (even at low concentration (10 uM)), the wound closure entry is on record as “unable to accomplish wound closure”. Also, the histopathology result in the data set on rats (25 mg/kg of IP dosage) was “no apparent histopathology in any organ”. Further, in the data set on rats (rats, five days post-treatment), the “behavioral or body weight changes” value is “no evidence of behavioral or body weight changes”.
Regarding `O=C(O)/C=C/c1nn(Cc2ccc(Cl)cc2Cl)c2cc(C(F)(F)F)ccc12` [RC-MC-110, trans 3-[1-(2,4-dichlorobenzyl)-6-trifluoromethyl-1H-indazol-3-yl]-acrylic acid], at HSP90, the “Binding of HSP90” value was “bind heat shock 90 proteins; also recorded: drug specific elution of Hsp90”. Also, in data set [4], the “Growth of cancer cell lines in vitro” value was “inhibited by RC-MC-110 in a dose-dependent manner”. Moreover, the “Mortality (25 mg/kg)” value with Male Long Evans rats (25 mg/kg single i.p. injection, […]) was 0/5. In addition, the “Response 25 mg/kg” value in the data set on Male Long Evans rats (25 mg/kg single i.p. injection, animals responding out of animals surviving, five days following injection) was 5/5. In addition, the “Mortality (200 mg/kg)” value in the data set with Male Long Evans rats (200 mg/kg single i.p. injection, […]) is given as 3/5. For the same molecule, in the data set with Male Long Evans rats (200 mg/kg single i.p. injection, animals responding out of animals surviving, five days following injection), the “Response 200 mg/kg” value is on record as 2/2.
